# Test results: patent US9517243B2, “Beta-mannosylceramide and stimulation of NKT cell anti-tumor immunity” (The United States of America, as represented by the …, priority 2010, dated 2016)
# Tests used:
# [1] = tested on: IFN-γ, IL-4, IL-13, IL-12 (p70), and TNF-α in plasma; test: In vivo cytokine assay (plasma, multiplex); set-up: species or system BALB/c mice; settings: 0-24 hours; for IL-4 in plasma: FIG. 8C; for IL-13 in plasma: FIG. 8E; for IFN-γ in plasma: 50 pmoles i.p. after CT26 i.v., FIG. 8A
# Experimental: FIGS. 8A-8E show graphs where the cytokine production induced by the glycolipid panel was tested in vivo. BALB/c mice were challenged with CT26 (5×10^5) i.v. followed by 50 pmoles of glycolipid or vehicle control i.p. at time 0. Mice were bled retroorbitally at 0, 3, 6, 12, and 24 hours, and the amount of IFN-γ (8A), TNF-α (8B), IL-4 (8C), IL-12 (p70) (8D), and IL-13 (8E) in plasma was determined. Each data point represents mean±SD of triplicates. […] Little cytokine production was detected following OCH and AH04-2 administration. β-ManCer induced very little cytokine production except for some IL-12 and TNF-α.
# In vivo cytokine assay. The concentration of IFN-γ, IL-4, IL-13, IL-12 (p70), and TNF-α in plasma samples was determined by MILLIPLEX cytokine multiplex immunoassay kit (Millipore, Billerica, Mass.) using a Bio-Plex system (Bio-Rad, Hercules, Calif.) according to manufacturer's instructions.
# CT26 lung metastasis = test: In vivo lung metastasis assay, CT26 colon carcinoma; set-up: species or system BALB/c mice; settings: for Tumor protection in IFN-γ knockout mice: IFN-γ−/− BALB/c; for Effect of NOS inhibition (L-NAME vs D-NAME) on tumor protection: WT mice, 0.2 mg L-NAME i.p., FIG. 6, 10A; for Rank order of tumor protection: dose of 50 pmoles; for Effect of TNF-α blockade (TNF-αR-Fc, etanercept) on protection: 100 μg etanercept every other day, FIG. 10C
# Experimental: (§1) In vivo lung metastasis assay. 5×10^5 CT26 cells in 0.2 ml PBS were injected i.v. into the tail vein. Glycolipid or vehicle control (0.00025% Tween 20) was injected i.p. (in 0.2 ml PBS) within one hour after tumor challenge. Mice were sacrificed 12-16 days after tumor challenge, and lungs were stained and fixed and metastases were enumerated as previously described (Park, J. M., et al., International J. of Cancer, 114:80-87 (2004)). The same protocol was used for the B16F10 cell line, except that lungs were perfused with PBS instead of ink before removal.
# For CD8^+T and NK cell depletion, mice were treated with anti-CD8 (200 μg/injection), anti-asialo GM1 (25 μl/injection), or control antibodies 1 day prior to tumor challenge, the day of challenge, and 5 and 10 days following tumor challenge. CD8^+T and NK cell depletion of >90% was confirmed by flow cytometric staining for CD8 (clone 53-6.7, BD Biosciences, Rockville, Md.) and pan-NK cell marker (clone DX5, eBioscience, San Diego, Calif.) at the conclusion of the experiment. For Gr-1^+ cell depletion, mice were injected i.p. with 100, 50, or 1 μg anti-Gr-1 antibody, 16 and 40 hours after tumor challenge. CD11b^+Gr-1^high cell depletion of >99% and CD11b^+Gr-1^intermediate cell depletion of >80% by 100 μg of anti-Gr-1 antibodies, was confirmed by flow cytometric staining for CD11b (clone M1/70, eBioscience), Gr-1 (clone RB6-8C5, BD Biosciences), Ly-6C (clone AL-21, BD Biosciences) and Ly6G. (clone 1A8, BD Biosciences). Where indicated, mice received 0.2 mg L-NAME or D-NAME i.p. twice per day on the day of tumor challenge, the day after tumor challenge, and once daily for 2 weeks after tumor injection. Blockade of TNF-α was achieved by administration of 100 μg of etanercept every other day, beginning immediately following tumor challenge, per the method of Fichtner-Feigl, S., et al., Cancer Res., 68:3467-3475 (2008). For PPARγ inhibition, mice were treated 0.15 mg/ml GW9662 (200 μL i.p.) or vehicle control (0.5% DMSO in PBS) immediately following tumor challenge, and then 30 minutes prior to glycolipid administration, via the method of Coste, A., et al., J. Immunol., 180:4939-4947 (2008).
# BALB/c splenocytes = test: In vitro cytokine assay (ELISA); assay type: cell-based, BALB/c mice; settings: 48 hours; for IFN-γ production in vitro / IL-4 production in vitro / IL-13 production in vitro: ELISA; for IFN-γ production in vitro: FIG. 7A; for IL-4 production in vitro: FIG. 7B; for IL-13 production in vitro: FIG. 7C
# Experimental: In vitro cytokine assay. Splenocytes (8×10^5/well of 96 well plates) from BALB/c mice were stimulated with glycolipid or solvent control for 48 hours. Supernatants were collected, and the concentration of IFN-γ, IL-4, or IL-13 was determined by ELISA.
# iNKT cells [2] = test: In vitro iNKT activation (CFSE dilution, splenocytes); assay type: cell-based, mice; settings: for Proliferation of iNKT cells (CFSE dilution): 3.5-day stimulation of mouse splenocytes, FIG. 3
# Experimental: In vitro iNKT activation. Splenocytes were harvested from mice (n=3), and erythrocytes were depleted with ACK Lysis Buffer (Lonza, Walkersville, Md.). Cells were labeled with 0.1 μM CFSE (Invitrogen, Carlsbad, Calif.) for 15 minutes at room temperature. Labeled cells (4×10^6 cells/well of 24-well plate) were stimulated for 3.5 days with glycolipid or vehicle control. At the end of the culture, cells were harvested and stained with PBS57-loaded CD1d tetramer (NIH Tetramer Facility) and anti-CD3 (clone 145-2C11, Biolegend). The fluorescence of stained cells was measured by FACSCalibur (BD Biosciences), and data were analyzed by Flowjo (Tree Star, Inc., Ashland, Oreg.).
# activated NKT cells = test: Anergy: re-stimulation of splenocytes one month after in vivo treatment; set-up: species or system mice; settings: for IFN-γ production on re-stimulation, compared to cells from vehicle-treated mice: 48 hours of re-stimulation, FIG. 13B; for Splenocyte proliferation on re-stimulation, compared to cells from vehicle-treated mice: re-stimulation with α-GalCer or β-ManCer, 3H-thymidine, 72-hour culture, FIG. 13A
# Experimental: FIG. 13A is a graph showing splenocyte proliferation measured by ^3H-thymidine incorporation during the final 8 hours of a 72-hour culture after being re-stimulated in culture. Pretreatment with α-GalCer induces anergy but pretreatment with β-ManCer induces much less anergy.
# FIG. 13B is a graph showing the amount of IFN-γ produced by the splenocyte culture after 48 hours of re-stimulation.
# It is known that α-GalCer induces strong anergy of activated NKT cells for over a month after in vivo stimulation. […] Mice were treated with α-GalCer, β-ManCer, or vehicle, and one month later, splenocytes were re-stimulated, and the degree of activation was measured by proliferation and IFN-γ production.
# [3] = tested on: 24.9.E NKT cell hybridoma; test: Plate-bound mCD1d hybridoma stimulation assay, 24.9.E; assay type: cell-based, mouse
# Experimental: (§2) Plate-bound mCD1d hybridoma stimulation assay. Protocol was modified from that of Gumperz et al. (Gumperz, J. E., et al., Immunity, 12(2):211-221 (2000)). mCD1d dimer/Ig fusion protein (BD Biosciences) was incubated with the indicated concentrations of glycolipid in pH 5 sodium acetate buffer containing 0.01% Tween20 and 45 μg/ml saposin C (provided by Nico Tjandra and Motoshi Suzuki [both from National Heart, Lung, and Blood Institute, NIH, Bethesda, Md., USA]) overnight at 37° C. The mCD1d dimers loaded with glycolipid were loaded onto 96-well Protein G Plates (Pierce, Rockford, Ill.) and incubated for 48 hours at 37° C. The plates were washed with PBS and tissue culture media to remove anything not coated on the plates. 1×10^5 24.9. E or DN32.D3 iNKT hybridoma cells were added to each well and incubated at 37° C. and 5% CO2 for 24 hours. Supernatants were collected and analyzed for IL-2 by ELISA.
# iNKT cells [4] = test: Upregulation of activation markers CD25 and CD69 on iNKT cells; assay type: cell-based; settings: mouse splenocytes stimulated overnight; data not shown
# [5] = tested on: B16F10 melanoma lung metastasis; test: In vivo lung metastasis assay, B16F10 melanoma; settings: C57BL/6 mice, dose titration; FIG. 12
# Experimental: as §1
# [6] = tested on: DN32.D3 NKT cell hybridoma; test: Plate-bound mCD1d hybridoma stimulation assay, DN32.D3; assay type: cell-based, mouse
# Experimental: as §2
smiles,measurement,setting,value
"CCCCC/C=C\C/C=C\CCCCCCCCCC(=O)N[C@@H](CO[C@H]1O[C@H](CO)[C@H](O)[C@H](O)[C@H]1O)[C@H](O)[C@H](O)CCCCCCCCCCCCCC [C20:2, reference compound]",IL-4 in plasma,[1]; 50 pmoles i.p.,increased
same,IL-13 in plasma,[1]; 50 pmoles i.p.,increased
same,Tumor protection in IFN-γ knockout mice,"CT26 lung metastasis; 50 pmoles, FIG. 9A",completely failed to induce any tumor protection
same,Effect of NOS inhibition (L-NAME vs D-NAME) on tumor protection,CT26 lung metastasis; 50 pmoles glycolipid,no effect
same,Rank order of tumor protection,CT26 lung metastasis; FIG. 2D,similarly protective
same,IFN-γ production in vitro,BALB/c splenocytes,lower IFN-γ level
same,IL-4 production in vitro,BALB/c splenocytes,higher amounts
same,IL-13 production in vitro,BALB/c splenocytes,higher amounts
CCCCCCCCCCCCCCCCCCCCCCCC(=O)N[C@@H](COC1OC(CO)C(O)C(O)C1O)[C@H](O)[C@H](O)CCCCC (stereo partly drawn) [OCH],Cytokine production in vivo (overall),[1]; 50 pmoles i.p.,Much less cytokine production
same,Rank order of tumor protection,CT26 lung metastasis; FIG. 2D,significantly less tumor killing
same,IFN-γ production in vitro,BALB/c splenocytes,lower IFN-γ level
same,IL-4 production in vitro,BALB/c splenocytes,higher amounts
same,IL-13 production in vitro,BALB/c splenocytes,higher amounts
"CCCCCCCCCCCCCCCCCCCCCCCCCC(=O)N[C@@H](CO[C@H]1O[C@H](CO)[C@H](O)[C@H](O)[C@H]1O)[C@H](O)[C@H](O)CCCCCCCCCCCCCC [α-GalCer, α-galactosylceramide, reference compound]",IFN-γ in plasma,[1],most IFN-γ
same,"Effect of TNF-α blockade (TNF-αR-Fc, etanercept) on protection",CT26 lung metastasis,no effect
same,Tumor protection in IFN-γ knockout mice,"CT26 lung metastasis; 50 pmoles, FIG. 9A",completely failed to induce any tumor protection
same,Effect of NOS inhibition (L-NAME vs D-NAME) on tumor protection,CT26 lung metastasis; 50 pmoles glycolipid,no effect
same,Rank order of tumor protection,CT26 lung metastasis; FIG. 2D,greatest protection
same,Potency relative to β-ManCer,"CT26 lung metastasis; results at the 5 pmole dose, FIG. 2D",about a log more potent
same,Proliferation of iNKT cells (CFSE dilution),iNKT cells [2],44%
same,IFN-γ production in vitro,BALB/c splenocytes,greatest IFN-γ production
same,"IFN-γ production on re-stimulation, compared to cells from vehicle-treated mice",activated NKT cells,severely suppressed
same,"Splenocyte proliferation on re-stimulation, compared to cells from vehicle-treated mice",activated NKT cells,severely suppressed
"CCCCCCCCCCCCCCCCCCCCCCCCCC(=O)N[C@@H](COC1OC(CO)C(O)C(O)C1O)[C@H](O)[C@H](O)CCCCCCCCCCCCCC (stereo partly drawn) [β-ManCer, 2-hexacosanoylamino-1-O-β-mannopyranosyl-D-ribo-1,3,4-octadecanetriol]",Increase in IL-2 production over unloaded mCD1d,[3]; 24.9.E,25 fold
same,"IL-2 production, glycolipid-loaded mCD1d dimers","[3]; 24.9.E, 24 hours, no APCs, FIG. 5",able to induce IL-2 production
same,"IL-2 production, soluble glycolipid in the absence of CD1d","[3]; 24.9.E, FIG. 5",failed to induce IL-2 production above background
same,"IL-2 production, difference (less) versus α-GalCer",[3]; stated for the 24.9.E and DN32.D3 hybridomas together,10- to 50 fold
same,IFN-γ in plasma,[1],no substantial increase
same,IL-12 in plasma,[1]; 50 pmoles i.p.,only a modest increase
same,TNF-α in plasma,[1]; 50 pmoles i.p.,only a modest increase
same,IL-4 in plasma,[1]; 50 pmoles i.p.,no substantial increase
same,IL-13 in plasma,[1]; 50 pmoles i.p.,no substantial increase
same,Upregulation of CD25 and CD69 on iNKT cells,iNKT cells [4],induced upregulation
same,"Effect of TNF-α blockade (TNF-αR-Fc, etanercept) on protection",CT26 lung metastasis,completely reversed the protection
same,Effect of PPARγ inhibition with GW 9662 on induced protection,"CT26 lung metastasis; 0.15 mg/ml GW9662 200 μL i.p., 50 pmoles glycolipid, FIG. 2C",no effect
same,Potency of tumor protection relative to α-ManCer and β-GalCer,"CT26 lung metastasis; CT26 lung metastasis, 50 vs 5,000 pmoles",100 fold
same,Fewer lung nodules compared to vehicle control mice,"CT26 lung metastasis; IFN-γ knockout mice, 50 pmoles, p=0.0079, FIG. 9A",50%
same,Protection in IFN-γ−/− mice when NOS was inhibited,"CT26 lung metastasis; IFN-γ−/− mice, L-NAME, FIG. 10B",completely lost
same,Tumor protection in Jα18KO mice (lack only iNKT cells),"CT26 lung metastasis; Jα18KO BALB/c mice, FIG. 2B",All protection was lost
same,Protection against CT26 lung metastasis,"CT26 lung metastasis; WT BALB/c, glycolipid i.p. within one hour after tumor challenge, β-ManCer 50 pmoles, FIG. 2A",strong protection
same,Effect of NOS inhibition (L-NAME vs D-NAME) on tumor protection,CT26 lung metastasis; 50 pmoles glycolipid,significantly inhibited protection
same,Effect of depletion of Gr-1+ cells on tumor protection,"CT26 lung metastasis; anti-Gr-1 antibodies, FIG. 10D",no effect
same,Rank order of tumor protection,CT26 lung metastasis; FIG. 2D,similarly protective
same,Inhibition of iNKT proliferation by CD1d-blocking antibody,iNKT cells [2]; 3.5-day stimulation,86%
same,Proliferation of iNKT cells (CFSE dilution),iNKT cells [2],40%
same,Proliferation of iNKT cells with CD1d-blocking antibody,"iNKT cells [2]; 3.5-day stimulation, CD1d-blocking antibody",5.4%
same,Cytokine production in vitro (overall),"BALB/c splenocytes; IFN-γ, IL-4, IL-13",least cytokine production
same,Cytokines at concentrations less than 30 nM,BALB/c splenocytes; glycolipid less than 30 nM,no cytokines detected
same,"Tumor protection against B16F10 melanoma lung metastasis, relative to α-GalCer",[5],at least as potent
same,"IFN-γ production on re-stimulation, compared to cells from vehicle-treated mice",activated NKT cells,slight reduction
same,"Splenocyte proliferation on re-stimulation, compared to cells from vehicle-treated mice",activated NKT cells,slight reduction
same,Increase in IL-2 production over unloaded mCD1d,[6]; DN32.D3,over 500 fold
same,"IL-2 production, glycolipid-loaded mCD1d dimers","[6]; DN32.D3, 24 hours, no APCs, FIG. 5",able to induce IL-2 production
same,"IL-2 production, soluble glycolipid in the absence of CD1d","[6]; DN32.D3, FIG. 5",failed to induce IL-2 production above background
